Reference: patent publication US20220313698A1, “MODULATORS OF CYSTIC FIBROSIS TRANSMEMBRANE CONDUCTANCE REGULATOR” (Vertex Pharmaceuticals Incorporated, priority 2019, published 2022)

Target: CFTR-mediated chloride transport (Homo sapiens, UniProt P13569)
Assay: Corrector Assay A - membrane potential dye assay (enteroid cells)
Details: for Corrector Assay A % activity: % of chloride transport of triple combination control (1 μM (14S)-dispiro macrocycle + 3 μM tezacaftor + 300 nM ivacaftor); for EC50: read-out: Corrector Assay A EC50, human intestinal enteroid cells, 18-24 h incubation, acute 10 μM forskolin + 300 nM ivacaftor

Row | Corrector Assay A % activity | EC50 | Compound
1 | + (+ is <30%) | > 3000 nM | CC(C)(C)c1ccc2c(n1)N1CC(CCCNc3cncc(n3)S(=O)(=O)NC2=O)CC1(C)C (single isomer, unassigned) [Compound 253, 8-tert-Butyl-12,12-dimethyl-2λ^6-thia-3,9,11,18,21,23-hexaazatetracyclo[17.3.1.111,14.05,10]tetracosa-1(22),5,7,9,19(23),20-hexaene-2,2,4-trione]
2 | +++ (+++ is >60%) | < 1000 nM | CC(C)C1CC[C@@H]2CN(c3nc(-n4ccc(OCCC5C6(CC6)C56CC6)n4)ccc3C(=O)NS(=O)(=O)c3cccc(n3)N1)C(C)(C)C2 (single isomer, unassigned) [Compound 353]
3 | +++ (+++ is >60%) | < 1000 nM | CC(C)=Cc1ccc(C2CC[C@@H]3CN(c4nc(C(C)(C)C)ccc4C(=O)NS(=O)(=O)c4cccc(n4)N2)C(C)(C)C3)nc1 (some centres unmarked) [Compound 182]
4 | +++ (+++ is >60%) | < 1000 nM | CC1(C)CC2CCC(c3ccccn3)Nc3cccc(n3)S(=O)(=O)NC(=O)c3ccc(-n4ccc(OCCC5C6(CC6)C56CC6)n4)nc3N1C2 [Compound 356, (14S)-8-13-(2-{dispiro[2.0.2.11heptan-7-yl}ethoxy)-1H-pyrazol-1-yl]-12,12-dimethyl-17-(pyridin-2-yl)-2λ^6-thia-3,9,11,18,23-pentaazatetracyclo[17.3.1.111,14.05,10]tetracosa-1(22),5,7,9,19(23),20-hexaene-2,2,4-trione]
5 | + (+ is <30%) | < 1000 nM | CN(C)Cc1ccnc([C@@H]2CC[C@@H]3CN(c4nc(C(C)(C)C)ccc4C(=O)NS(=O)(=O)c4cccc(n4)N2)C(C)(C)C3)c1 (single isomer, unassigned) [Compound 87]
6 | +++ (+++ is >60%) | < 1000 nM | CC(C)(C)c1ccc2c(n1)N1C[C@@H](CCC(c3ccc(N4CCCC4)cn3)Nc3cccc(n3)S(=O)(=O)NC2=O)CC1(C)C (stereo partly drawn) [Compound 164, (14S)-8-tert-butyl-12,12-dimethyl-17-[5-(pyrrolidin-1-yl)pyridin-2-yl]-2λ^6-thia-3,9,11,18,23-pentaazatetracyclo[17.3.1.111,14.05,10]tetracosa-1(23),5(10),6,8,19,21-hexaene-2,2,4-trione]
7 | +++ (+++ is >60%) | < 1000 nM | CC(C)(C)c1ccc2c(n1)N1C[C@@H](CCC(c3ccc(N4CCCCC4)cn3)Nc3cccc(n3)S(=O)(=O)NC2=O)CC1(C)C (some centres unmarked) [Compound 184]
8 | ++ (++ is 30-60%) | < 1000 nM | CC(C)(C)c1ccc2c(n1)N1C[C@@H](CC[C@@H](C3CCCCC3)Nc3cccc(n3)S(=O)(=O)NC2=O)CC1(C)C (single isomer, unassigned) [Compound 235]
9 | +++ (+++ is >60%) | < 1000 nM | CC(C)(C)c1ccnc([C@H]2CC[C@@H]3CN(c4nc(-c5cccc(OCC6CCC6)n5)ccc4C(=O)NS(=O)(=O)c4cccc(n4)N2)C(C)(C)C3)c1 [Compound 302, (14S,17R)-17-(4-tert-butylpyridin-2-yl)-8-[6-(cyclobutylmethoxy)pyridin-2-yl]-12,12-dimethyl-2λ^6-thia-3,9,11,18,23-pentaazatetracyclo[17.3.1.111,14.05,10]tetracosa-1(22),5,7,9,19(23),20-hexaene-2,2,4-trione]
10 | ++ (++ is 30-60%) | < 1000 nM | COCCc1ccc(C2CC[C@@H]3CN(c4nc(C(C)(C)C)ccc4C(=O)NS(=O)(=O)c4cccc(n4)N2)C(C)(C)C3)nc1 (some centres unmarked) [Compound 111]
11 | ++ (++ is 30-60%) | < 1000 nM | CC(C)(C)c1ccc2c(n1)N1C[C@@H](CC[C@@H](c3cc(-c4cc[nH]n4)ccn3)Nc3cccc(n3)S(=O)(=O)NC2=O)CC1(C)C (single isomer, unassigned) [Compound 74]
12 | +++ (+++ is >60%) | < 1000 nM | CC(C)(C)c1cccc(C2CC[C@@H]3CN(c4nc(C(C)(C)C)ccc4C(=O)NS(=O)(=O)c4cccc(n4)N2)C(C)(C)C3)c1 (single isomer, unassigned) [Compound 41]
13 | +++ (+++ is >60%) | < 1000 nM | CC(C)(C)c1ccnc([C@H]2CC[C@@H]3CN(c4nc(-c5cccc(OCCC6CC6)n5)ccc4C(=O)NS(=O)(=O)c4cccc(n4)N2)C(C)(C)C3)c1 [Compound 301, (14S,17R)-17-(4-tert-butylpyridin-2-yl)-8-[6-(2-cyclopropylethoxy)pyridin-2-yl]-12,12-dimethyl-2λ^6-thia-3,9,11,18,23-pentaazatetracyclo[17.3.1.111,14.05,10]tetracosa-1(22),5,7,9,19(23),20-hexaene-2,2,4-trione]
14 | +++ (+++ is >60%) | < 1000 nM | CC1(C)C[C@@H]2CC[C@H](c3ccccn3)Nc3cccc(n3)S(=O)(=O)NC(=O)c3ccc(C4CC4)nc3N1C2 [Compound 349]
15 | ++ (++ is 30-60%) | < 1000 nM | CC(C)(C)c1ccc2c(n1)N1CC(CC1(C)C)OCCNc1cccc(n1)S(=O)(=O)NC2=O (single isomer, unassigned) [Compound 259, 8-tert-Butyl-12,12-dimethyl-15-oxa-2λ^6-thia-3,9,11,18,23-pentaazatetracyclo[17.3.1.111,14.05,10]tetracosa-1(22),5(10),6,8,19(23),20-hexaene-2,2,4-trione]
16 | ++ (++ is 30-60%) | 1000 to 3000 nM | CC(C)(C)c1ccc2c(n1)N1C[C@@H](CCC(c3ccc(CCC(=O)O)cn3)Nc3cccc(n3)S(=O)(=O)NC2=O)CC1(C)C (some centres unmarked) [Compound 97]

Row | Corrector Assay A % activity | EC50 | Compound
17 | ++ (++ is 30-60%) | < 1000 nM | CC(C)(C)c1ccc2c(n1)N1C[C@@H](CCC(CC(O)CO)Nc3cccc(n3)S(=O)(=O)NC2=O)CC1(C)C (single isomer, unassigned) [Compound 31]
18 | ++ (++ is 30-60%) | < 1000 nM | CC(C)(C)c1ccnc(C2CC[C@@H]3CN(c4nc(C(C)(C)C)ccc4C(=O)NS(=O)(=O)c4cccc(n4)N2)C(C)(C)C3)c1 (single isomer, unassigned) [Compound 76]
19 | +++ (+++ is >60%) | < 1000 nM | CC(C)(C)c1ccc2c(n1)N1C[C@@H](CCC(c3ccc(CO)cn3)Nc3cccc(n3)S(=O)(=O)NC2=O)CC1(C)C (stereo partly drawn) [Compound 79, (14S)-8-tert-butyl-17-[5-(hydroxymethyl)pyridin-2-yl]-12,12-dimethyl-2λ^6-thia-3,9,11,18,23-pentaazatetracyclo[17.3.1.111,14.05,10]tetracosa-1(23),5(10),6,8,19,21-hexaene-2,2,4-trione]
20 | + (+ is <30%) | 1000 to 3000 nM | CC(C)(C)c1ccc2c(n1)N1C[C@@H](CCC(c3ccc(CCC(=O)O)cn3)Nc3cccc(n3)S(=O)(=O)NC2=O)CC1(C)C (stereo partly drawn) [Compound 98, 3-{6-[(14S)-8-tert-Butyl-12,12-dimethyl-2,2,4-trioxo-2λ^6-thia-3,9,11,18,23-pentaazatetracyclo[17.3.1.111,14.05,10]tetracosa-1(23),5(10),6,8,19,21-hexaen-17-yl]pyridin-3-yl}propanoic acid]
21 | +++ (+++ is >60%) | < 1000 nM | CC1(C)C[C@@H]2CC[C@H](c3ccccn3)Nc3cccc(n3)S(=O)(=O)NC(=O)c3ccc(-c4cccc(OCCC5CC5)n4)nc3N1C2 [Compound 311]
22 | +++ (+++ is >60%) | < 1000 nM | COc1cccc(-c2ccc3c(n2)N2C[C@@H](CC[C@H](c4ccccn4)Nc4cccc(n4)S(=O)(=O)NC3=O)CC2(C)C)c1 [Compound 339]
23 | +++ (+++ is >60%) | < 1000 nM | CC(C)(C)c1ccc2c(n1)N1C[C@@H](CC[C@H](c3cccc(C#N)n3)Nc3cccc(n3)S(=O)(=O)NC2=O)CC1(C)C [Compound 211, 6-[(14S,17R)-8-tert-Butyl-12,12-dimethyl-2,2,4-trioxo-2λ^6-thia-3,9,11,18,23-pentaazatetracyclo[17.3.1.111,14.05,10]tetracosa-1(22),5,7,9,19(23),20-hexaen-17-yl]pyridine-2-carbonitrile]
24 | ++ (++ is 30-60%) | < 1000 nM | CC(C)(C)c1ccc2c(n1)N1C[C@@H](CCC(c3ccc(C4CCNCC4)cn3)Nc3cccc(n3)S(=O)(=O)NC2=O)CC1(C)C (some centres unmarked) [Compound 153]
25 | ++ (++ is 30-60%) | < 1000 nM | CC(C)(C)c1ccc2c(n1)N1C[C@@H](CCC(c3ccncc3)Nc3cccc(n3)S(=O)(=O)NC2=O)CC1(C)C (single isomer, unassigned) [Compound 233]
26 | ++ (++ is 30-60%) | < 1000 nM | CC(C)(C)c1ccc2c(n1)N1C[C@@H](CCC(c3cc(C(N)=O)ccn3)Nc3cccc(n3)S(=O)(=O)NC2=O)CC1(C)C (single isomer, unassigned) [Compound 83]
27 | +++ (+++ is >60%) | < 1000 nM | CC(C)(C)c1ccc2c(n1)N1C[C@@H](CCC(c3cc(CCCN)ccn3)Nc3cccc(n3)S(=O)(=O)NC2=O)CC1(C)C (single isomer, unassigned) [Compound 109]
28 | +++ (+++ is >60%) | < 1000 nM | CC1(C)C[C@@H]2CC[C@H](c3ccccn3)Nc3cccc(n3)S(=O)(=O)NC(=O)c3ccc(-n4ccc(OCC5CC5)n4)nc3N1C2 [Compound 334]
29 | +++ (+++ is >60%) | < 1000 nM | Cn1nccc1C1CC[C@@H]2CN(c3nc(C(C)(C)C)ccc3C(=O)NS(=O)(=O)c3cccc(n3)N1)C(C)(C)C2 (single isomer, unassigned) [Compound 285]
30 | ++ (++ is 30-60%) | < 1000 nM | CC(C)(C)c1ccc2c(n1)N1C[C@@H](CC[C@@H](c3cc(-c4cn[nH]c4)ccn3)Nc3cccc(n3)S(=O)(=O)NC2=O)CC1(C)C (single isomer, unassigned) [Compound 69]
31 | +++ (+++ is >60%) | < 1000 nM | CC(C)(C)c1ccnc(C2CC[C@@H]3CN(c4nc(C(C)(C)C)ncc4C(=O)NS(=O)(=O)c4cccc(n4)N2)C(C)(C)C3)c1 (single isomer, unassigned) [Compound 2]
